Assay results from ChEMBL document CHEMBL1201862, “PubChem BioAssay data set” (2004).
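Five concentrations, 48 hours, 96-well plates. GI50 is the concentration that inhibits growth by half.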 Activity calls are given as the source filed them. No stated cut-off is given here; in the data, active = GI50 up to about 1.1 µM and inactive = higher.

Key:
Test in all cases: NCI anticancer screen, dose series, 48 h
TK-10 = system: TK-10
K562 = system: K562
OVCAR-8 = system: OVCAR-8
SN12C = system: SN12C
SNB-19 = system: SNB-19
HL-60 = system: HL-60
RXF 393 = system: RXF 393
CCRF-CEM = system: CCRF-CEM
MOLT-4 = system: MOLT-4
OVCAR-5 = system: OVCAR-5
UO-31 = system: UO-31
U-251 = system: U-251
CAKI-1 = system: CAKI-1
Hs-578T = system: Hs-578T
M14 = system: M14
HT-29 = system: HT-29
Malme-3M = system: Malme-3M
UACC-62 = system: UACC-62
SR = system: SR
SW-620 = system: SW-620

| Structure (SMILES) | GI50 (TK-10) | GI50 (K562) | GI50 (OVCAR-8) | GI50 (SN12C) | GI50 (SNB-19) | GI50 (HL-60) | GI50 (RXF 393) | GI50 (CCRF-CEM) | GI50 (MOLT-4) | GI50 (OVCAR-5) | GI50 (UO-31) | GI50 (U-251) | GI50 (CAKI-1) | GI50 (Hs-578T) | GI50 (M14) | GI50 (HT-29) | GI50 (Malme-3M) | GI50 (UACC-62) | GI50 (SR) | GI50 (SW-620) |
| --- | --- | --- | --- | --- | --- | --- | --- | --- | --- | --- | --- | --- | --- | --- | --- | --- | --- | --- | --- | --- |
| O=C1/C(=C/c2ccc(O)c(O)c2)CCC/C1=C\c1ccc(O)c(O)c1 | 3.79 µM (inactive) | 3.71 µM (inactive) | 2.07 µM (inactive) | 4.41 µM (inactive) | 7.08 µM (inactive) | 3.24 µM (inactive) | 2.62 µM (inactive) | 1.52 µM (inactive) | 2.42 µM (inactive) | 14 µM (inactive) | 2 µM (inactive) | 2.92 µM (inactive) | 3.68 µM (inactive) | 3.18 µM (inactive) | 4.8 µM (inactive) | 8.09 µM (inactive) | 2.46 µM (inactive) | 2.86 µM (inactive) | 1.58 µM (inactive) | 2.45 µM (inactive) |
| CC(=O)NC(C)(C)C1CCC(C)CC1 (configuration not stated) | > 100 µM (inactive) | > 100 µM (inactive) | > 100 µM (inactive) | > 100 µM (inactive) | > 100 µM (inactive) | > 100 µM (inactive) | > 100 µM (inactive) | > 100 µM (inactive) | > 100 µM (inactive) | > 100 µM (inactive) | > 100 µM (inactive) | > 100 µM (inactive) | > 100 µM (inactive) | 48.9 µM (inactive) | > 100 µM (inactive) | > 100 µM (inactive) | > 100 µM (inactive) | > 100 µM (inactive) | > 100 µM (inactive) | > 100 µM (inactive) |
| CC12CCC(CC(=O)/C1=C(/Br)I)C2(C)C (configuration not stated) | 18.8 µM (inactive) | 11.2 µM (inactive) | 17.8 µM (inactive) | 15.8 µM (inactive) | 15.3 µM (inactive) | 3.43 µM (inactive) | 4.6 µM (inactive) | 14.3 µM (inactive) | 7.18 µM (inactive) | 2.02 µM (inactive) | 18.2 µM (inactive) |  | 16.9 µM (inactive) | 18.7 µM (inactive) | 14.4 µM (inactive) | 11.4 µM (inactive) | 12.7 µM (inactive) | 14.5 µM (inactive) | 15.8 µM (inactive) | 17 µM (inactive) |
| CC(OC(=O)C(CC(=O)OC(C)(C)C)NC(=O)OC(C)(C)C)C(=O)OCc1ccccc1 (configuration not stated) | > 100 µM (inactive) | > 100 µM (inactive) | > 100 µM (inactive) | > 100 µM (inactive) | > 100 µM (inactive) | > 100 µM (inactive) | > 100 µM (inactive) | > 100 µM (inactive) | > 100 µM (inactive) | > 100 µM (inactive) | > 100 µM (inactive) | > 100 µM (inactive) | > 100 µM (inactive) | > 100 µM (inactive) | > 100 µM (inactive) | > 100 µM (inactive) | > 100 µM (inactive) | > 100 µM (inactive) | > 100 µM (inactive) | > 100 µM (inactive) |
| CO[P@@]1(=O)O[C@@H](c2ccccc2)[C@H](O)[C@]1(O)c1ccccc1 | > 100 µM (inactive) | > 100 µM (inactive) | > 100 µM (inactive) | > 100 µM (inactive) | > 100 µM (inactive) | > 100 µM (inactive) | > 100 µM (inactive) | > 100 µM (inactive) | > 100 µM (inactive) |  | > 100 µM (inactive) | > 100 µM (inactive) | > 100 µM (inactive) | > 100 µM (inactive) | > 100 µM (inactive) | 34 µM (inactive) | > 100 µM (inactive) | > 100 µM (inactive) | > 100 µM (inactive) | > 100 µM (inactive) |
| COc1cccc(C2c3cc4c(cc3OC(NNc3ccccc3)C2C)OCO4)c1O (configuration not stated) | 3.62 µM (inactive) | 2.24 µM (inactive) | 2.47 µM (inactive) | 11.2 µM (inactive) | 12.8 µM (inactive) | 4.48 µM (inactive) | 12.9 µM (inactive) | 4.68 µM (inactive) | 4.17 µM (inactive) | 9.38 µM (inactive) | 3.32 µM (inactive) | 5.61 µM (inactive) | 3.1 µM (inactive) | 11.9 µM (inactive) | 2.92 µM (inactive) | 10.9 µM (inactive) | 4.66 µM (inactive) | 2.43 µM (inactive) | 1.87 µM (inactive) | 11 µM (inactive) |
| O=C1OCC(O)=C1C(c1ccc(Cl)cc1)c1cc2c(cc1O)OCO2 (configuration not stated) | > 100 µM (inactive) | > 100 µM (inactive) |  | > 100 µM (inactive) | > 100 µM (inactive) | > 100 µM (inactive) | > 100 µM (inactive) | > 100 µM (inactive) | > 100 µM (inactive) | > 100 µM (inactive) | > 100 µM (inactive) |  | > 100 µM (inactive) | > 100 µM (inactive) | > 100 µM (inactive) | > 100 µM (inactive) | > 100 µM (inactive) | > 100 µM (inactive) | > 100 µM (inactive) | > 100 µM (inactive) |
| O=P1(C(O)c2ccccc2)N(Cc2ccccc2)[C@@H]2CCCC[C@H]2N1Cc1ccccc1 (some centres not stated) | 30.3 µM (inactive) | 53.5 µM (inactive) | 31 µM (inactive) | 20.9 µM (inactive) | 56.2 µM (inactive) | 22.3 µM (inactive) | 31.4 µM (inactive) | 34.8 µM (inactive) | 19.6 µM (inactive) | 24.8 µM (inactive) | 33 µM (inactive) | 31.3 µM (inactive) | 64.4 µM (inactive) | 20 µM (inactive) | 24.8 µM (inactive) | 15 µM (inactive) | 30.7 µM (inactive) | 30.7 µM (inactive) | 24.3 µM (inactive) | 33.9 µM (inactive) |
| CCCNC(=O)CCC(C)C1CCC2C3C(C[C@H](OC(C)=O)[C@]12C)[C@@]1(C)CCC2(C[C@H]1C[C@H]3OC(C)=O)OOC1(CC[C@]3(C)C4C[C@H](OC(C)=O)[C@]5(C)C(C(C)CCC(=O)NCCC)CCC5C4[C@H](OC(C)=O)C[C@@H]3C1)OO2 (some centres not stated) | > 100 µM (inactive) | > 100 µM (inactive) | 23.8 µM (inactive) | > 100 µM (inactive) | > 100 µM (inactive) | > 100 µM (inactive) | > 100 µM (inactive) | > 100 µM (inactive) | > 100 µM (inactive) | 46.5 µM (inactive) | 0.101 µM (active) | > 100 µM (inactive) | 46.5 µM (inactive) | 19 µM (inactive) | 25.6 µM (inactive) | > 100 µM (inactive) | 34.6 µM (inactive) |  | > 100 µM (inactive) | > 100 µM (inactive) |
| CCOC(=O)c1cc2c3c(c(C(C)=O)c(O)c2[nH]1)N(CC(C)CC)CC3 (configuration not stated) | > 100 µM (inactive) | 32.5 µM (inactive) | 61.7 µM (inactive) | > 100 µM (inactive) | 92 µM (inactive) | 28.8 µM (inactive) | 34.6 µM (inactive) | 35.6 µM (inactive) | 26.3 µM (inactive) |  | 83.4 µM (inactive) | 78.2 µM (inactive) | 64.9 µM (inactive) | 8.97 µM (inactive) |  | > 100 µM (inactive) | 21.4 µM (inactive) | 71.6 µM (inactive) | 27.4 µM (inactive) | > 100 µM (inactive) |
| CCC(=O)Nc1ccc(N2C(=O)/C(=C/c3ccc(O)c(OC)c3)N=C2c2ccccc2)cc1 |  | 18.5 µM (inactive) | 44.5 µM (inactive) | 54.5 µM (inactive) | 22.5 µM (inactive) | 24 µM (inactive) | 10.9 µM (inactive) | 22.1 µM (inactive) | 11.3 µM (inactive) | 40.8 µM (inactive) | 25.5 µM (inactive) |  | 17.3 µM (inactive) | 61.1 µM (inactive) | 19.7 µM (inactive) | 33.7 µM (inactive) | 29.8 µM (inactive) | 26.4 µM (inactive) | 13.2 µM (inactive) | 51.2 µM (inactive) |
| CC1(C)N=c2c(ncn2-c2ccccc2)=C(C(N)=O)N1 | > 100 µM (inactive) | > 100 µM (inactive) | > 100 µM (inactive) | > 100 µM (inactive) | > 100 µM (inactive) | > 100 µM (inactive) | > 100 µM (inactive) | > 100 µM (inactive) |  | > 100 µM (inactive) |  | > 100 µM (inactive) | > 100 µM (inactive) | > 100 µM (inactive) | > 100 µM (inactive) | > 100 µM (inactive) | > 100 µM (inactive) | > 100 µM (inactive) | > 100 µM (inactive) | > 100 µM (inactive) |
| CC(=O)OCC(OC(C)=O)C(OC(C)=O)C(/C=N\Nc1nc2ccccc2c(=O)[nH]1)=N\Nc1nc2ccccc2c(=O)[nH]1 (configuration not stated) |  | > 100 µM (inactive) | > 100 µM (inactive) | > 100 µM (inactive) | > 100 µM (inactive) | > 100 µM (inactive) | > 100 µM (inactive) | 34.4 µM (inactive) | > 100 µM (inactive) | > 100 µM (inactive) | > 100 µM (inactive) | > 100 µM (inactive) | > 100 µM (inactive) | > 100 µM (inactive) | > 100 µM (inactive) | > 100 µM (inactive) | > 100 µM (inactive) | > 100 µM (inactive) | 63.8 µM (inactive) | > 100 µM (inactive) |
| COc1ccc2c(c1)CC1C3(CCCCC23)CC[N+]1(C)C (configuration not stated) | > 100 µM (inactive) | 75.5 µM (inactive) | > 100 µM (inactive) | 38.7 µM (inactive) | 73.5 µM (inactive) | 50.5 µM (inactive) | > 100 µM (inactive) | > 100 µM (inactive) | > 100 µM (inactive) | > 100 µM (inactive) | > 100 µM (inactive) | 66.7 µM (inactive) | > 100 µM (inactive) | > 100 µM (inactive) | > 100 µM (inactive) | > 100 µM (inactive) | > 100 µM (inactive) | > 100 µM (inactive) | > 100 µM (inactive) |  |
